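Dose response: 5 concentrations. Exposure: 48 h. Format: 96-well plates. Endpoint: linear interpolation; highest concentration if not reached. GI50 = concentration required for 50% inhibition of growth.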 Calls of active or inactive are those of the source. Rule as the data show it: active = GI50 up to about 1.1 µM and inactive = higher.
Tests used:
Assay in all cases: NCI-60 cell line screen, 48 h
[1] = tested on: HCT-15
[2] = tested on: A498
[3] = tested on: CAKI-1
[4] = tested on: SK-MEL-2
[5] = tested on: SW-620
[6] = tested on: SF-268
[7] = tested on: Malme-3M
[8] = tested on: UACC-62
[9] = tested on: U-251
[10] = tested on: NCI-H460
[11] = tested on: NCI-H23
[12] = tested on: SF-539
[13] = tested on: OVCAR-8
[14] = tested on: TK-10
[15] = tested on: IGROV-1
[16] = tested on: SNB-75
[17] = tested on: MDA-N
[18] = tested on: MDA-MB-231
[19] = tested on: MCF7

Compound | GI50 [1] [µM] | GI50 [2] | GI50 [3] | GI50 [4] | GI50 [5] | GI50 [6] | GI50 [7] | GI50 [8] | GI50 [9] | GI50 [10] | GI50 [11] | GI50 [12] | GI50 [13] | GI50 [14] | GI50 [15] | GI50 [16] | GI50 [17] | GI50 [18] | GI50 [19]
O=C(OCCOCBr)c1ccccc1 | > 100 | > 100 µM (inactive) | > 100 µM (inactive) | > 100 µM (inactive) | > 100 µM (inactive) | > 100 µM (inactive) | > 100 µM (inactive) | > 100 µM (inactive) | > 100 µM (inactive) | > 100 µM (inactive) | > 100 µM (inactive) | > 100 µM (inactive) | > 100 µM (inactive) | > 100 µM (inactive) | > 100 µM (inactive) | > 100 µM (inactive) |  |  | 
CCCOC(=O)c1cc(C(=CCC[C@H]2CC[C@@]3(C)[C@@H](CC[C@@H]4[C@@H]3CC[C@]3(C)[C@@H](C(C)CCCC(C)C)CC[C@@H]43)C2)c2cc(Cl)c(O)c(C(=O)OCCC)c2)cc(Cl)c1O (stereo partly specified) | > 50 | > 50 µM (inactive) | > 50 µM (inactive) | > 50 µM (inactive) | > 50 µM (inactive) | > 50 µM (inactive) |  | > 50 µM (inactive) | > 50 µM (inactive) | > 50 µM (inactive) | > 50 µM (inactive) |  | > 50 µM (inactive) |  | > 50 µM (inactive) | > 50 µM (inactive) | > 50 µM (inactive) | > 50 µM (inactive) | 
COc1cc2c(c3oc4c(O)cccc4c(=O)c13)CC(C(C)(O)CO)O2 (stereo unspecified) | > 100 |  | 39.9 µM (inactive) | 57.4 µM (inactive) | 47.6 µM (inactive) | 46.8 µM (inactive) | 47.5 µM (inactive) | 27.1 µM (inactive) | 97.9 µM (inactive) | 96.8 µM (inactive) | 95.7 µM (inactive) | 60.3 µM (inactive) | 53.1 µM (inactive) | > 100 µM (inactive) | 41.7 µM (inactive) |  | 94.8 µM (inactive) | 63.7 µM (inactive) | 19.5 µM (inactive)
C/C(=N\NC(=O)/C(C#N)=C\c1ccc(N(CCC#N)CCC#N)cc1)c1ccccc1 | > 10 |  | > 10 µM (inactive) |  | > 10 µM (inactive) | > 10 µM (inactive) | > 10 µM (inactive) | > 10 µM (inactive) |  | > 10 µM (inactive) | > 10 µM (inactive) | > 10 µM (inactive) | > 10 µM (inactive) | > 10 µM (inactive) | > 10 µM (inactive) | > 10 µM (inactive) | > 10 µM (inactive) | > 10 µM (inactive) | > 10 µM (inactive)
CC(C)(C)C(=O)OCOP(=O)(OCOC(=O)C(C)(C)C)OCC1OC(n2ccc(=O)[nH]c2=O)C(N=[N+]=[N-])C1O (stereo unspecified) | 3.07 |  | 10.4 µM (inactive) |  | 5.79 µM (inactive) | 0.757 µM (active) | 0.261 µM (active) | 2.88 µM (inactive) | 2.59 µM (inactive) | 3.08 µM (inactive) | 4.45 µM (inactive) | 2.43 µM (inactive) | 3.06 µM (inactive) | 10.5 µM (inactive) | 4.23 µM (inactive) | 1.42 µM (inactive) | 3.11 µM (inactive) | 8.79 µM (inactive) | 3.81 µM (inactive)
C=CCON(C(=O)OC(C)(C)C)C(C)(C)C | > 100 | > 100 µM (inactive) | > 100 µM (inactive) | > 100 µM (inactive) | > 100 µM (inactive) | > 100 µM (inactive) | > 100 µM (inactive) | > 100 µM (inactive) | > 100 µM (inactive) | > 100 µM (inactive) | > 100 µM (inactive) |  | > 100 µM (inactive) | > 100 µM (inactive) | > 100 µM (inactive) | > 100 µM (inactive) |  | > 100 µM (inactive) | 
CCCCCCOC(=O)C(N)Cc1ccc(OC)cc1 (stereo unspecified) | > 100 |  | > 100 µM (inactive) | > 100 µM (inactive) | > 100 µM (inactive) | > 100 µM (inactive) | > 100 µM (inactive) | > 100 µM (inactive) | > 100 µM (inactive) | > 100 µM (inactive) | > 100 µM (inactive) | > 100 µM (inactive) | > 100 µM (inactive) | > 100 µM (inactive) | > 100 µM (inactive) | > 100 µM (inactive) |  | > 100 µM (inactive) | > 100 µM (inactive)
O=C1OC([C@H](O)c2cccnc2)c2ccccc21 (stereo partly specified) | > 10 |  | > 10 µM (inactive) | > 10 µM (inactive) | > 10 µM (inactive) | > 10 µM (inactive) |  | > 10 µM (inactive) | > 10 µM (inactive) | > 10 µM (inactive) | > 10 µM (inactive) | > 10 µM (inactive) | > 10 µM (inactive) | > 10 µM (inactive) | > 10 µM (inactive) | > 10 µM (inactive) | > 10 µM (inactive) | > 10 µM (inactive) | > 10 µM (inactive)
